The record followed here is PMC8955525 (2022).

Molecules are shown by their SMILES.

Experiment [1] has as its system FM1 r(CUG)10 (FM1 CUG × 10, r10FAM), annealed (RNA, repeat, fluorescein (fam) covalently incorporated between C13 and U14 (5th CUG repeat, hairpin loop)) CUGCUGCUGCUGCUGCUGCUGCUGCUGCUG
As to the kind of experiment: fluorescence microplate titration, sigmoidal fit. The following applies: none stated; nuclease-free water, room temperature; 200 nM RNA; apparent.

The test system is the same in experiment [2]. As to the kind of experiment: UV melting, 260 nm. The following applies: 100 mM NaCl; 10 mM sodium phosphate, pH 7.0; 1.5 µM RNA; L/M = 1; Tm 55.8 to 57.4 °C.
For experiment [3], the system named is native r(CUG)10 (r10) (RNA, repeat) CUGCUGCUGCUGCUGCUGCUGCUGCUGCUG
As to the kind of experiment: UV melting, 260 nm. The following applies: 100 mM NaCl, 10 mM sodium phosphate, pH 7.0, 1.5 µM RNA, L/M = 1, Tm 55.8 to 57.4 °C buffer, Tm 57.5 (L/M 0), 58.7 (L/M 1), 60.7 °C (L/M 16).

Experiment [4] concerns native r(CUG)7 (r7) (RNA, repeat) CUGCUGCUGCUGCUGCUGCUG
As to the kind of experiment: UV melting, 260 nm. The following applies: 100 mM NaCl; 10 mM sodium phosphate, pH 7.0; 1.5 µM RNA; L/M = 1; Tm 59.8 to 64.0 °C.

The subject of experiment [5] is FM1 r(CUG)10 (FM1 CUG × 10, r10FAM), annealed (RNA, repeat, fluorescein (fam) covalently incorporated between C13 and U14 (5th CUG repeat, hairpin loop)) CUGCUGCUGCUGCUGCUGCUGCUGCUGCUG
Put plainly: fluorescence melting of internal FAM. The following applies: none stated; nuclease-free water; 200 nM RNA; L/M = 1; Tm 52.2 to 54.9 °C; lower Tm at L/M > 1.

Experiment [6] has the same test system. As to the kind of experiment: fluorometer fluorescence titration, sigmoidal fit. The following applies: none stated; nuclease-free water, 25 °C; 200 nM RNA; apparent; Langmuir fit 671 nM, quadratic fit 247 nM.

Regarding `NC[C@@H]1O[C@H](O[C@H]2[C@@H](O)[C@H](O[C@@H]3[C@@H](O)[C@H](N)C[C@H](N)[C@H]3O[C@H]3O[C@H](CN)[C@@H](O)[C@H](O)[C@H]3N)O[C@@H]2CO)[C@H](N)[C@@H](O)[C@@H]1O`, the Kd in experiment [1] was 1054 nM.
As to `CN[C@@H]1[C@@H](O)[C@@H](O[C@@H]2[C@@H](O)[C@H](O[C@H]3OC(CN)=CC[C@H]3N)[C@@H](N)C[C@H]2N)OC[C@]1(C)O`, the shift in melting temperature (ΔTm) in experiment [2] is ~ 1.5 °C; in experiment [4], 4 °C; in experiment [5], 2.7 °C. Also, the binding result in experiment [3] is recorded as “yes”. Besides, the figures for the Kd in experiment [1] and in experiment [6] were 928 nM and 945 nM, respectively.
With `NC[C@H]1O[C@H](O[C@H]2[C@H](O)[C@@H](O[C@H]3O[C@H](CO)[C@@H](O)[C@H](N)[C@H]3O)[C@H](N)C[C@@H]2N)[C@H](O)[C@@H](O)[C@@H]1O`, the Kd in experiment [1] worked out at 1555 nM.

One may read the ΔTm as the shift of the melting midpoint relative to a reference.
